Experimental data reported in PubChem BioAssay (NCI).
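Step 1: Grow cells in 96-well plates. Step 2: Expose to compound for 48 hours at 5 concentrations. Step 3: Interpolate endpoints linearly; if unreached, use highest concentration. GI50 = concentration required for 50% inhibition of growth. TGI: concentration producing complete growth inhibition.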

Legend:
Assay in all cases: NCI anticancer screen, dose series, 48 h
SNB-19 CNS = test system: SNB-19 CNS
MDA-N = test system: MDA-N
HOP-62 NSCLC = test system: HOP-62 NSCLC
MDA-MB-435 = test system: MDA-MB-435
SR leukemia = test system: SR leukemia
U251 CNS = test system: U251 CNS
HCT-116 colon = test system: HCT-116 colon
CCRF-CEM leukemia = test system: CCRF-CEM leukemia
K-562 leukemia = test system: K-562 leukemia
CAKI-1 renal = test system: CAKI-1 renal
NCI-H522 lung = test system: NCI-H522 lung
ACHN renal = test system: ACHN renal

Structure (SMILES) | TGI (SNB-19 CNS) | TGI (MDA-N) | TGI (HOP-62 NSCLC) | TGI (MDA-MB-435) | TGI (SR leukemia) | TGI (U251 CNS) | TGI (HCT-116 colon) | TGI (CCRF-CEM leukemia) | TGI (K-562 leukemia) | TGI (CAKI-1 renal) | TGI (NCI-H522 lung) | TGI (ACHN renal) | GI50 (SNB-19 CNS) | GI50 (HOP-62 NSCLC) | GI50 (MDA-MB-435) | GI50 (U251 CNS) | GI50 (HCT-116 colon) | GI50 (K-562 leukemia) | GI50 (CAKI-1 renal) | GI50 (NCI-H522 lung)
COC(=O)[C@]12CC[C@H]3CN(S(=O)(=O)c4ccc(C)cc4)[C@H]([C@H]31)[C@H](c1ccco1)N2S(=O)(=O)c1ccc(C)cc1 | > 100 µM | 73.7 µM | > 100 µM | 55.8 µM | > 100 µM | > 100 µM | > 100 µM | > 100 µM | > 100 µM | > 100 µM | > 100 µM | > 100 µM |  |  |  |  |  |  |  | 
Cc1ccc(C(=O)NC2C(=O)NC(C(C)C)C(=O)N3CCCC3C(=O)N(C)CC(=O)N(C)C(C(C)C)C(=O)OC2C)c2c1Oc1c(c(C(=O)NC3C(=O)NC(C(C)C)C(=O)N4CCCC4C(=O)N(C)CC(=O)N(C)C(C(C)C)C(=O)OC3C)c3nc(-c4ccccc4)c(=O)oc3c1C)N2 (stereo not given) | 21.4 µM | 0.0236 µM | 0.00223 µM | 0.0193 µM |  |  |  | 0.697 µM |  | > 100 µM | 0.0342 µM | 0.801 µM |  |  |  |  |  |  |  | 
CCOC(=O)N1c2ccccc2N(C(=O)OCC)C1CC(=O)/C=C/c1ccccc1 | 16.8 µM | 15.8 µM | 17.6 µM | 8.11 µM | 5.75 µM | 12.8 µM | 11.6 µM | 4.61 µM | > 30.7 µM | 12.6 µM | 6.42 µM | 15.7 µM |  |  |  |  |  |  |  | 
Cc1cn(CC(=S)NCCc2c[nH]c3ccccc23)c(=O)[nH]c1=O | > 100 µM | > 100 µM | > 100 µM | > 100 µM | > 100 µM | > 100 µM | > 100 µM | > 100 µM | > 100 µM |  |  | > 100 µM |  |  |  |  |  |  |  | 
C[C@@]12CC[C@@H](O)C[C@@H]1CC[C@H]1[C@H]2CC[C@@]2(C)[C@H](c3ccc(=O)oc3)CC[C@@]12O | 0.0755 µM |  | 0.0156 µM | 0.0587 µM |  | 0.0363 µM | 0.0122 µM |  | 0.0309 µM | 0.0148 µM | 0.021 µM |  | < 0.0104 µM | < 0.01 µM | < 0.01 µM | < 0.01 µM | < 0.01 µM | < 0.01 µM | < 0.01 µM | < 0.01 µM
O=C(O)C1=C(CO)Oc2cc3c(cc2C1c1ccc2c(c1)OCO2)OCO3 (stereo not given) | > 100 µM |  | > 100 µM |  |  | > 100 µM | > 100 µM | > 100 µM | > 100 µM | > 100 µM |  | > 100 µM |  |  |  |  |  |  |  | 
C=C(C)[C@@H]1CC[C@]2(C(=O)O)CC[C@]3(C)[C@H](CC[C@@H]4[C@@]5(C)C/C(=C/c6ccco6)C(=O)C(C)(C)[C@@H]5CC[C@]43C)[C@@H]12 |  |  | 31.3 µM | > 100 µM |  |  |  |  |  | > 100 µM | 9.85 µM |  |  | 2.77 µM | 3.55 µM |  |  |  | 3.5 µM | 2.81 µM
c1ccc(-c2cc3nc4ccccc4nc3cc(-c3ccccc3)[nH][nH]2)cc1 | > 100 µM | > 100 µM | 66.9 µM | > 100 µM | > 100 µM | > 100 µM | > 100 µM | > 100 µM | > 100 µM | > 100 µM | > 100 µM | 77.9 µM |  |  |  |  |  |  |  | 
C/C=C\C1OC1(C)c1cc(=O)c2c(C)cc3c(c2o1)C(=O)c1c(O)c(C2CC(C)(N(C)C)C(OC(C)=O)C(C)O2)cc(C2CC(N(C)C)C(O)C(C)O2)c1C3=O (stereo not given) | 0.103 µM | 0.00857 µM | 0.0121 µM | 0.0103 µM |  | 0.0394 µM | 0.0429 µM | 0.379 µM | 0.135 µM | 0.0431 µM | 0.00964 µM | 0.00575 µM |  |  |  |  |  |  |  | 
COc1cc2cc(C(=O)N3CC(CCl)c4ccc(NO)cc43)[nH]c2c(OC)c1OC (stereo not given) | 11.1 µM | 0.727 µM | 0.749 µM | 0.481 µM | > 100 µM |  | > 100 µM | 1.16 µM | 0.965 µM | 3.44 µM | 0.354 µM | 0.723 µM |  |  |  |  |  |  |  | 
O=C1c2cc3c(cc2[C@@H]2C(O)[C@H]4O[C@H]4C4CCN1C42)OCO3 (stereo not given in full) | > 37.5 µM |  | > 37.5 µM |  | > 37.5 µM |  | > 37.5 µM | > 37.5 µM | > 37.5 µM | > 37.5 µM | > 37.5 µM | > 37.5 µM |  |  |  |  |  |  |  | 
COc1ccc2c(O)c1-c1c(OC)ccc(c1O)SSc1ccc(OC)c(c1O)-c1c(OC)ccc(c1O)SS2 | > 100 µM | > 100 µM | > 100 µM | > 100 µM | 21.5 µM | 69 µM | > 100 µM | > 100 µM | 97.1 µM | > 100 µM | 15.5 µM | 18.5 µM |  |  |  |  |  |  |  | 
Nc1c(S(=O)(=O)O)cc(S(=O)(=O)O)c2ccc(N=Nc3ccccc3)c(O)c12 | > 100 µM | > 100 µM | > 100 µM | > 100 µM | > 100 µM | > 100 µM | > 100 µM | > 100 µM | > 100 µM | > 100 µM | > 100 µM | > 100 µM |  |  |  |  |  |  |  | 
Cc1nn(CNc2ccc(F)c(Cl)c2)c(=S)n1/N=C/c1ccc(-c2ccc(Cl)cc2Cl)o1 |  | 33.5 µM | 35.9 µM | 39 µM | 14.7 µM | 29 µM | 30.7 µM | 18.5 µM | 15.5 µM | 35.8 µM | 29.7 µM | 30.7 µM |  |  |  |  |  |  |  | 
O=C(c1ccccc1)c1ccc(N2C(=O)/C(=C/c3cccc(Oc4ccccc4)c3)N=C2c2ccccc2)c(N2C(=O)/C(=C/c3cccc(Oc4ccccc4)c3)N=C2c2ccccc2)c1 | > 100 µM | 69 µM | > 100 µM | 31.5 µM |  | > 100 µM | > 100 µM | > 100 µM | > 100 µM | > 100 µM | 51 µM | > 100 µM |  |  |  |  |  |  |  | 
CC(C)=CCC/C(C)=C/Cc1c2c(c3oc(-c4ccc(O)c(O)c4)c(O)c(=O)c3c1O)C=CC(C)(C)O2 | 12.5 µM | 11.4 µM | 10.7 µM | 12.6 µM | 6.94 µM | 10.7 µM | 8.56 µM | 8.82 µM | 9.63 µM | 5.55 µM | 2.9 µM | 7.83 µM |  |  |  |  |  |  |  | 
